Results: patent US7858646B2, “Potentiators of glutamate receptors” (Eli Lilly and Company, priority 2004, dated 2010)
pEC50, pIC50: −log10 of the molar value.

What was measured:
human mGlu2 receptors = target: T1, human mGlu2 receptors (Homo sapiens, UniProt Q14416); test: Potentiation of glutamate-induced increase in intracellular calcium with a mGlu2 expressing cell line (FLIPR); format: cell-based; settings: RGT cells expressing human mGlu2 and Galpha15; with submaximal glutamate (e.g. 1 μM)
T1 construct: expressed in transfected cells; host or cells: RGT cells (co-transfected with rat GLAST, stably transfected with Galpha15)
Method: Potentiation of Glutamate-Induced Increase in Intracellular Calcium with a mGlu2 Expressing Cell Line.
Cell lines expressing human mGlu2 receptors are derived as previously described (Desai, Burnett, Mayne, Schoepp, Mol. Pharmacol. 48, 648-657, 1995) and cultured in DMEM with 5% dialyzed fetal bovine serum, 1 mM glutamine, 1 mM sodium pyruvate, 50 μg/mL Geneticin G418, and 0.2 mg/mL hygromycin B. Confluent cultures are passaged weekly. These cells are referred to as RGT cells for Rat Glutamate Transporter, and have been co-transfected with the glutamate/aspartate transporter GLAST. The RGT cell line expressing the mGlu2 receptors is stably transfected with the promiscuous G-protein, Galpha15 to change the signaling pathway to the mGlu2 receptor to one that could be easily measured through release of intracellular calcium. Thus, intracellular calcium levels are monitored before and after the addition of drugs on a Fluorometric Imaging Plate Reader (i.e. FLIPR, Molecular Devices). The following buffer is used throughout as an assay buffer: 10 mM KCl, 138 mM NaCl, 5 mM Ca Cl2, 1 mM MgC2, 4 mM Na H2PO4, 10 mM Glucose, 10 mM HEPES, pH 7.4. Cells that had been plated 48 hours prior at a density of 30-40,000 cells per well in a 96-well plate are loaded with a calcium-sensitive dye for 90 minutes at 25° C. Fluo-3 (2 mM in DMSO, Molecular Probes) are mixed with a equal volume of 10% pluronic acid in DMSO, and diluted to 8 μM into the buffer described above containing 10% fetal bovine serum to make the loading buffer. Following loading of the cells, the loading buffer is removed and replaced with assay buffer prior to drug addition and monitoring on the FLIPR. The resulting signal from the addition of compounds of formula (I) and submaximal concentrations of a glutamate-site agonist (e.g. 1 μM glutamate) is determined by taking the difference of the maximal fluorescent peak height minus the background fluorescence in each well and expressing the results as a percent of the signal seen with a maximal glutamate response (30 μM glutamate, typically about 30-50,000 Relative Fluorescent Units). Least squares curve fitting with a four-parameter equation is then applied to the resulting dose-% response curve to determine the resulting EC50 values.

human CysLT1 receptor = target: T2, human CysLT1 receptor (Homo sapiens, UniProt Q9Y271); test: Antagonism of LTD4-induced increase in intracellular calcium within a CysLT1 receptor expressing cell line (FLIPR); format: cell-based; settings: AV12-664 cells expressing human CysLT1; 6 nM LTD4; read-out: antagonism of CysLT1 receptors, IC50
T2 construct: expressed in transfected cells; host or cells: AV12-664 (ATCC-9595)
T2 sequence (Q9Y271 1-337): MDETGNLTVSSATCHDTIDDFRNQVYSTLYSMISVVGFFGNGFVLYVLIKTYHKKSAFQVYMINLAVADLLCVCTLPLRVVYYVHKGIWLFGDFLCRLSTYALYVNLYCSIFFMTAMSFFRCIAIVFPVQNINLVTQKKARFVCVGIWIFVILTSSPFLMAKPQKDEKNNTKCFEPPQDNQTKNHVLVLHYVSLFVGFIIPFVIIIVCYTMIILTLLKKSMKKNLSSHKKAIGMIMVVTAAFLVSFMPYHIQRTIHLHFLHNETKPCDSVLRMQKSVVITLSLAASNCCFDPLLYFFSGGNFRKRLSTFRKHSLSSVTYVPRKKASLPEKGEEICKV
Method: Antagonism of Cysteinyl-leukotriene D4 (LTD4)-Induced Increase in Intracellular Calcium within a Cysteinyl-Leukotriene 1 (CysLT1) Receptor Expressing Cell Line.
Cell lines expressing the human CysLT1 receptor [AV12-664 (ATCC-9595)] are derived and maintained in culture media: DMEM with 5% dialyzed fetal bovine serum, 1 mM glutamine, and 1 mM sodium pyruvate. Confluent cultures are passaged weekly. Intracellular calcium levels are monitored in the CysLT1-expressing cells with the addition of LTD4, with or without prior exposure to the compounds being tested as antagonists with a Fluorometric Imaging Plate Reader (FLIPR, Molecular Devices). The following buffer is used throughout as an assay buffer: Hanks Buffered Saline Solution without phenol red (GIBCO), with 10 mM HEPES pH 7.4. Cells that had been plated 48 hours prior at a density of 20-25,000 cells per well in a 96-well plate are loaded with a calcium-sensitive dye for 90 minutes at 25° C. Fluo-3 (2 mM in DMSO, Molecular Probes) is mixed with an equal volume of 10% pluronic acid in DMSO, and diluted to 8 μM in the buffer described above containing 10% fetal bovine serum to make the loading buffer. Following loading of the cells, the buffer is removed and replaced with assay buffer prior to drug addition and monitoring on the FLIPR for several minutes. The resulting signal from the addition of 6 nM LTD4 (provides approximately 90% of the maximal signal with 25 nM LTD4) is determined by taking the difference of the maximal fluorescent peak height minus the background fluorescence in each well and expressing the results as a percent of the signal seen without pretreatment of the test compound(s). Least squares curve fitting with a four-parameter equation is applied to the resulting dose-% inhibition curve to determine the resulting IC50 values.

T1 sequence (Q14416 19-872): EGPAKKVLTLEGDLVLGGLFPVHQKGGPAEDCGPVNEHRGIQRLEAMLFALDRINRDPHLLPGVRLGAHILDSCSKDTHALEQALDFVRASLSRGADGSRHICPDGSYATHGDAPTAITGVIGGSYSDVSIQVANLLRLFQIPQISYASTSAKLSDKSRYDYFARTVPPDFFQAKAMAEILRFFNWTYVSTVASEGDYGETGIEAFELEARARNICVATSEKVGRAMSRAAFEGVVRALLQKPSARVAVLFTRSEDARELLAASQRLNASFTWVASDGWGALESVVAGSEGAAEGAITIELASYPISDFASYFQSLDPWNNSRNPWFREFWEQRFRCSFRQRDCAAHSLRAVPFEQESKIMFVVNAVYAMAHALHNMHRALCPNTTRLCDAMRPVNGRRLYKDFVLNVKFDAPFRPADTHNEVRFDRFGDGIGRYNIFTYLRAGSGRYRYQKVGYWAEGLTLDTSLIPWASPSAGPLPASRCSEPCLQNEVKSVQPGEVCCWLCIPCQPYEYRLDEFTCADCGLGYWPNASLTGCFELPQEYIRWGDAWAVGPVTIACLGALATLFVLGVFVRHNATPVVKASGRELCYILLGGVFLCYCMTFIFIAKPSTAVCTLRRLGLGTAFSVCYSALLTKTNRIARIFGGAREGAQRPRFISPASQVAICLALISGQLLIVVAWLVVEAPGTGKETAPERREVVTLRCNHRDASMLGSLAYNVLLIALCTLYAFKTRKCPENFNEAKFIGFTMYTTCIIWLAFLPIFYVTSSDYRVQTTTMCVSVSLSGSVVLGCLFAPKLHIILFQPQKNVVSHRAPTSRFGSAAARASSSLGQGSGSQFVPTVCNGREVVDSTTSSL

Compound	pEC50 (human mGlu2 receptors)	pIC50 (human CysLT1 receptor)
CC(=O)c1ccc(OCc2ccc(Oc3cc(-c4nn[nH]n4)ccn3)cc2)c(C)c1O [Example 21, 1-(2-Hydroxy-3-methyl-4-{4-[4-(1H-tetrazol-5-yl)-pyridin-2-yloxy]-benzyloxy}-phenyl)-ethanone]	> 6.46	> 6.82
CC(=O)c1ccc(OCc2ccc(Oc3cccc(-c4nn[nH]n4)c3)cc2)c(C)c1O [Example 22, 1-(2-Hydroxy-3-methyl-4-{4-[3-(1H-tetrazol-5-yl)-phenoxy]-benzyloxy}-phenyl)-ethanone]	> 6.46	–
CC(=O)c1ccc(OCc2cccc(Oc3cc(-c4nn[nH]n4)ccn3)c2)c(C(F)(F)F)c1O [Example 27, 1-(2-Hydroxy-4-{3-[4-(2H-tetrazol-5-yl)-pyridin-2-yloxy]-benzyloxy}-3-trifluoromethyl-phenyl)-ethanone]	> 6.46	> 6.82
CCCc1c(OCc2cccc(Sc3cc(C(=O)O)ccn3)c2)ccc(C(C)=O)c1O [Example 84, 6-(3-((4-acetyl-3-hydroxy-2-propylphenoxy)methyl)phenylthio)isonicotinic acid]	> 6.46	> 6.82
